From patent publication US20100183530A1, “Cosmetic compositions comprising 4-carboxy-2-pyrrolidinone esters and triazine lipophilic UV-screening agents” (L'OREAL, priority 2008, published 2010)

Assay: Solubility of lipophilic triazine screening agents in oils (prior art solvents and solvents of the invention)
Type: physicochemical
Settings: weight/weight, solution left at laboratory temperature for 1 month, no crystal or oily deposit
[1] = oil: Caprylic/capric acid triglycerides
[2] = oil: Compound (m) of the invention
[3] = oil: Isopropyl N-lauroylsarcosinate

solubility of the screening agent in the oil [2] | solubility of the screening agent in the oil [3] | solubility of the screening agent in the oil (oil: Compound (v) of the invention) | Compound | solubility of the screening agent in the oil (oil: C12-C15 alkyl benzoate) | solubility of the screening agent in the oil [1] | solubility of the screening agent in the oil (oil: 2-Phenylethyl benzoate) | solubility of the screening agent in the oil (oil: Compound (I) of the invention) | solubility of the screening agent in the oil (oil: Compound (ii) of the invention) | solubility of the screening agent in the oil (oil: Compound (j) of the invention)
60% gel | 35% | – | 2,4-bis(isobutyl 4′-aminobenzalmalonate)-6-[(3-{1,3,3,3-tetramethyl-1-[(trimethylsilyl)oxy]disiloxanyl}propyl)amino]-1,3,5-triazine [Screening agent 2] | 8% | 6% | – | – | – | –
60% gel | 40% gel | – | CC(C)(C)COC(=O)C(=Cc1ccc(Nc2nc(Nc3ccc(C=C(C(=O)OCC(C)(C)C)C(=O)OCC(C)(C)C)cc3)nc(Nc3ccc(C=C(C(=O)OCC(C)(C)C)C(=O)OCC(C)(C)C)cc3)n2)cc1)C(=O)OCC(C)(C)C [Screening agent 1, Dineopentyl 2-[4-({4,6-bis[(4-{3-(neopentyloxy)-2-[(neopentyloxy)carbonyl]-3-oxoprop-1-enyl}phenyl)amino]-1,3,5-triazin-2-yl}amino)benzylidene]malonate] | – | – | – | – | – | –
60% gel | 40% gel | – | CC(C)(C)COC(=O)C(=Cc1ccc(Nc2nc(Nc3ccc(C=C(C(=O)OCC(C)(C)C)C(=O)OCC(C)(C)C)cc3)nc(Nc3ccc(C(=O)NC(C)(C)C)cc3)n2)cc1)C(=O)OCC(C)(C)C [Screening agent 4, Dineopentyl 2-[4-({4-({4-[(tert-butylamino)carbonyl]phenyl}amino)-6-[(4-{3-(neopentyloxy)-2-[(neopentyloxy)carbonyl]-3-oxoprop-1-enyl}phenyl)amino]-1,3,5-triazin-2-yl}amino)benzylidene]malonate] | – | – | – | – | – | –
18% | 10% | 20% | CCCCC(CC)COc1ccc(-c2nc(-c3ccc(OC)cc3)nc(-c3ccc(OCC(CC)CCCC)cc3O)n2)c(O)c1 (centres unmarked) [Screening agent 10, 5-[(2-Ethylhexyl)oxy]-2-[4-{4-[(2-ethylhexyl)oxy]-2-hydroxyphenyl}-6-(4-methoxyphenyl)-1,3,5-triazin-2-yl]phenol] | – | – | – | – | – | –

Compound | solubility of the screening agent in the oil [2] | solubility of the screening agent in the oil [3] | solubility of the screening agent in the oil (oil: Compound (v) of the invention) | solubility of the screening agent in the oil (oil: C12-C15 alkyl benzoate) | solubility of the screening agent in the oil [1] | solubility of the screening agent in the oil (oil: 2-Phenylethyl benzoate) | solubility of the screening agent in the oil (oil: Compound (I) of the invention) | solubility of the screening agent in the oil (oil: Compound (ii) of the invention) | solubility of the screening agent in the oil (oil: Compound (j) of the invention)
CCCCOC(=O)c1ccc(Nc2nc(Nc3ccc(C=C(C(=O)OCC(C)(C)C)C(=O)OCC(C)(C)C)cc3)nc(Nc3ccc(C=C(C(=O)OCC(C)(C)C)C(=O)OCC(C)(C)C)cc3)n2)cc1 [Screening agent 3, Dineopentyl 2-[4-({4-{[4-(butoxycarbonyl)phenyl]amino}-6-[(4-{3-(neopentyloxy)-2-[(neopentyloxy)carbonyl]-3-oxoprop-1-enyl}phenyl)amino]-1,3,5-triazin-2-yl}amino)benzylidene]malonate] | 60% gel | 40% gel | – | – | – | – | – | – | –
CC(C)(C)CC(C)(C)NC(=O)c1ccc(Nc2nc(NCCC[Si](C)(O[Si](C)(C)C)O[Si](C)(C)C)nc(Nc3ccc(C(=O)NC(C)(C)CC(C)(C)C)cc3)n2)cc1 [Screening agent 5, N-(1,1,3,3-tetramethylbutyl)-4-({4-[(4-{[(1,1,3,3-tetramethylbutyl)amino]carbonyl}phenyl)amino]-6-[(3-{1,3,3,3-tetramethyl-1-[(trimethylsilyl)oxy]disiloxanyl}propyl)amino]-1,3,5-triazin-2-yl}amino)benzamide] | 60% gel | 40% gel | – | – | – | – | – | – | –
CCCCOC(=O)c1ccc(Nc2nc(NCCC[Si](C)(O[Si](C)(C)C)O[Si](C)(C)C)nc(Nc3ccc(C(=O)OCCCC)cc3)n2)cc1 [Screening agent 8, Butyl 4-({4-{[4-(butoxycarbonyl)phenyl]amino}-6-[(3-{1,3,3,3-tetramethyl-1-[(trimethylsilyl)oxy]disiloxanyl}propyl)amino]-1,3,5-triazin-2-yl}amino)benzoate] | 60% gel | 40% gel | – | 28% | 31% | 27% | 60% gel | 60% gel | 60% gel
